Measured values taken from US20210077382A1, “COMPOSITIONS, DEVICES, AND METHODS FOR THE TREATMENT OF OPIOID-RECEPTOR-MEDIATED CONDITIONS” (Opiant Phamaceuticals, Inc., priority 2016, published 2021).

Assay: Clinical pharmacokinetic crossover study of IN, IM and oral naltrexone; plasma naltrexone and 6β-naltrexol by LC-MS/MS
From the text: Study Goals. […] Secondary endpoints included adverse events (AEs), vital signs (heart rate, sitting blood pressure, and respiration rate), electrocardiogram (ECG), clinical laboratory changes and nasal irritation using the nasal irritation scale.
Study design. […] This was an in-patient open-label, crossover study involving approximately 14 healthy volunteers. […] Subjects stayed in the in-patient facility for 13 days to complete the entire study. Subjects were called 3 to 5 days after discharge to inquire concerning AEs and concomitant medications since discharge. Informed consent was obtained from all subjects, and all were screened for eligibility to participate in the study, including medical history, physical examination, clinical chemistry, coagulation markers, hematology, infectious disease serology, urinalysis, urine drug and alcohol toxicology screen, vital signs and ECG.
On days of study drug administration, a 12-lead ECG was performed approximately 1 hour prior to dosing and at approximately 1 and 4 hours post-dose. Vital signs were measured pre-dose and about 1 and 4 hours post-dose.
Study Drugs and Dosing. […] The IN (40 mg/mL) formulations were made by the staff pharmacist at Vince & Associates; the vehicle for the IN formulations was sterile water for injection. The IM formulation (2 mg/mL) was made by the staff pharmacist at Vince & Associates; the vehicle was sterile saline for injection.
Subjects stayed in the in-patient facility for 13 days to complete the entire study and were discharged 2 days after the fourth dose.
PK Assessments. […] Plasma was separated from whole blood and stored frozen at […] until assayed.
Analysis. […] Dose-adjusted values for AUCs and Cmax were calculated. The relative extent of IN and PO absorption (IN and PO versus IM) will be estimated from the dose-corrected AUCs.

[1] = naltrexone 2 mg IM, N = 10, listed as 6β-Naltrexol
[2] = naltrexone 4 mg IN plus […] Intravail, N = 12

## Oc1ccc2c3c1O[C@H]1[C@H](O)CC[C@@]4(O)[C@@H](C2)N(CC2CC2)CC[C@]314 [6β-naltrexol]
IN, IM or PO administration, except naltrexone Cmax after 4 mg IN
  Difference between the sexes for the PK parameters: no clinically meaningful difference
After the IN administration of naltrexone
  Mean Cmax of 6β-naltrexol: approximately 3 ng/mL
After the oral dose
  Ratio of AUC0-inf for 6β-naltrexol compared to that of naltrexone: 25
Naltrexone 2 mg IM, N = 10
  AUC0-inf of 6β-naltrexol, mean (CV %): 27.1 ng·h/mL
  AUC0-inf/Dose of 6β-naltrexol, mean (CV %): 15.0 (19.0) h · ng/mL/mg
  AUC0-t of 6β-naltrexol, mean (CV %): 25.1 (18.3) h · ng/mL
  AUC0-t/Dose of 6β-naltrexol, mean (CV %): 13.9 (18.3) h · ng/mL/mg
  AUCextrap of 6β-naltrexol, mean (CV %): 7.02 (29.4) %
  Cmax of 6β-naltrexol, mean (CV %): 1.5 ng/mL
  Cmax/Dose of 6β-naltrexol, mean (CV %): 0.838 ng/mL/mg
  Tmax of 6β-naltrexol, median (minimum, maximum): 3.00 h
  t1/2 of 6β-naltrexol, mean (CV %): 12.4 (13.2) h
  λz of 6β-naltrexol, mean (CV %): 0.0570 (14.8) 1/h
[1]
  Cmax of 6β-naltrexol, mean (CV %): 1.52 (26.8) ng/mL
  Cmax/Dose of 6β-naltrexol, mean (CV %): 0.838 (26.8) ng/mL/mg
Naltrexone 2 mg IN, hour 0
  Mean concentration of 6β-naltrexol: 0.0661 ng/mL
Naltrexone 2 mg IN, hour 0.042
  Mean concentration of 6β-naltrexol: 0.0627 ng/mL
Naltrexone 2 mg IN, hour 0.083
  Mean concentration of 6β-naltrexol: 0.12 ng/mL
Naltrexone 2 mg IN, hour 0.17
  Mean concentration of 6β-naltrexol: 0.283 ng/mL
Naltrexone 2 mg IN, hour 0.25
  Mean concentration of 6β-naltrexol: 0.454 ng/mL
Naltrexone 2 mg IN, hour 0.33
  Mean concentration of 6β-naltrexol: 0.677 ng/mL
Naltrexone 2 mg IN, hour 0.5
  Mean concentration of 6β-naltrexol: 0.852 ng/mL
Naltrexone 2 mg IN, hour 0.75
  Mean concentration of 6β-naltrexol: 1.08 ng/mL
Naltrexone 2 mg IN, hour 1
  Mean concentration of 6β-naltrexol: 1.1 ng/mL
Naltrexone 2 mg IN, hour 2
  Mean concentration of 6β-naltrexol: 1.39 ng/mL
Naltrexone 2 mg IN, hour 3
  Mean concentration of 6β-naltrexol: 1.48 ng/mL
Naltrexone 2 mg IN, hour 4
  Mean concentration of 6β-naltrexol: 1.46 ng/mL
Naltrexone 2 mg IN, hour 6
  Mean concentration of 6β-naltrexol: 1.3 ng/mL
Naltrexone 2 mg IN, hour 8
  Mean concentration of 6β-naltrexol: 1.08 ng/mL
Naltrexone 2 mg IN, hour 12
  Mean concentration of 6β-naltrexol: 0.81 ng/mL
Naltrexone 2 mg IN, hour 16
  Mean concentration of 6β-naltrexol: 0.595 ng/mL
Naltrexone 2 mg IN, hour 24
  Mean concentration of 6β-naltrexol: 0.365 ng/mL
Naltrexone 2 mg IN, hour 30
  Mean concentration of 6β-naltrexol: 0.255 ng/mL
Naltrexone 2 mg IN, hour 36
  Mean concentration of 6β-naltrexol: 0.18 ng/mL
Naltrexone 2 mg IN, hour 48
  Mean concentration of 6β-naltrexol: 0.106 ng/mL
Naltrexone 4 mg IN + […] Intravail, hour 0
  Mean concentration of 6β-naltrexol: 0.0682 ng/mL
Naltrexone 4 mg IN + […] Intravail, hour 0.042
  Mean concentration of 6β-naltrexol: 0.082 ng/mL
Naltrexone 4 mg IN + […] Intravail, hour 0.083
  Mean concentration of 6β-naltrexol: 0.238 ng/mL
Naltrexone 4 mg IN + […] Intravail, hour 0.17
  Mean concentration of 6β-naltrexol: 0.994 ng/mL
Naltrexone 4 mg IN + […] Intravail, hour 0.25
  Mean concentration of 6β-naltrexol: 1.86 ng/mL
Naltrexone 4 mg IN + […] Intravail, hour 0.33
  Mean concentration of 6β-naltrexol: 2.55 ng/mL
Naltrexone 4 mg IN + […] Intravail, hour 0.5
  Mean concentration of 6β-naltrexol: 2.84 ng/mL
Naltrexone 4 mg IN + […] Intravail, hour 0.75
  Mean concentration of 6β-naltrexol: 2.93 ng/mL
Naltrexone 4 mg IN + […] Intravail, hour 1
  Mean concentration of 6β-naltrexol: 2.73 ng/mL
Naltrexone 4 mg IN + […] Intravail, hour 2
  Mean concentration of 6β-naltrexol: 2.9 ng/mL
Naltrexone 4 mg IN + […] Intravail, hour 3
  Mean concentration of 6β-naltrexol: 2.61 ng/mL
Naltrexone 4 mg IN + […] Intravail, hour 4
  Mean concentration of 6β-naltrexol: 2.45 ng/mL
Naltrexone 4 mg IN + […] Intravail, hour 6
  Mean concentration of 6β-naltrexol: 2.03 ng/mL
Naltrexone 4 mg IN + […] Intravail, hour 8
  Mean concentration of 6β-naltrexol: 1.67 ng/mL
Naltrexone 4 mg IN + […] Intravail, hour 12
  Mean concentration of 6β-naltrexol: 1.25 ng/mL
Naltrexone 4 mg IN + […] Intravail, hour 16
  Mean concentration of 6β-naltrexol: 0.923 ng/mL
Naltrexone 4 mg IN + […] Intravail, hour 24
  Mean concentration of 6β-naltrexol: 0.618 ng/mL
Naltrexone 4 mg IN + […] Intravail, hour 30
  Mean concentration of 6β-naltrexol: 0.457 ng/mL
Naltrexone 4 mg IN + […] Intravail, hour 36
  Mean concentration of 6β-naltrexol: 0.312 ng/mL
Naltrexone 4 mg IN + […] Intravail, hour 48
  Mean concentration of 6β-naltrexol: 0.175 ng/mL
[2]
  AUC0-inf of 6β-naltrexol, mean (CV %): 46.3 (18.3) h · ng/mL
  AUC0-inf/Dose of 6β-naltrexol, mean (CV %): 12.8 (18.3) h · ng/mL/mg
  AUC0-t of 6β-naltrexol, mean (CV %): 43.0 (17.4) h · ng/mL
  AUC0-t/Dose of 6β-naltrexol, mean (CV %): 11.9 (17.4) h · ng/mL/mg
  AUCextrap of 6β-naltrexol, mean (CV %): 7.02 (37.3) %
  Cmax of 6β-naltrexol, mean (CV %): 3.29 (23.7) ng/mL
  Cmax/Dose of 6β-naltrexol, mean (CV %): 0.908 (23.7) ng/mL/mg
  Tmax of 6β-naltrexol, median (minimum, maximum): 0.75 h
  t1/2 of 6β-naltrexol, mean (CV %): 12.8 (14.6) h
